What was measured:
[1] = Plasma stability of prodrugs (bioconversion to parent drug); assay type: in vitro ADME
Description: Approximately 1 mg/mL of stock solution of each prodrug was prepared in 100 μL of ethanol and 900 μL of acetonitrile. Next, 10 μL of stock was spiked into 1 mL of plasma and vortexed. The samples were kept sealed in an amber vial and samples were obtained to analyze for bioconversion to parent drug.
An approximated 1 mg/mL stock solution of each prodrug was prepared in 100 μL of ethanol and 900 μL of acetonitrile. Next, 10 μL of stock was spiked into 1 mL of plasma and vortexed. The samples were kept sealed in an amber vial and samples were obtained to analyze for bioconversion to parent drug.
Approximately 1 mg/mL of stock solution of each prodrug was prepared in 100 μL of ethanol and 900 μL of acetonitrile. Ten μL of stock was spiked into 1 mL of plasma and vortexed. The samples were kept sealed in an amber vial and samples were obtained to analyze for bioconversion to parent drug.

[2] = In vitro human skin permeation, flow-through diffusion cells; conditions: for Flux enhancement: total THC equivalents
[3] = Table 4, gel formulation, analyte: THC from prodrug
[4] = Table 4, gel formulation, analyte: THC or intact prodrug (PD)
[5] = Table 17, 90:8:2 PG:H2O:IPM donor solution, analyte: THC from prodrug
[6] = Table 17, 90:8:2 PG:H2O:IPM donor solution, analyte: THC or intact prodrug as applied
[7] = Table 17, 90:8:2 PG:H2O:IPM donor solution
[8] = Table 17, 90:8:2 PG:H2O:IPM donor solution, total THC equivalents (THC and/or prodrug)
[9] = Table 7, 2.36:1.18:1 PG:ethanol:H2O donor solution, analyte: THC from prodrug
[10] = Table 7, 2.36:1.18:1 PG:ethanol:H2O donor solution, analyte: THC or intact prodrug as applied
[11] = Table 7, 2.36:1.18:1 PG:ethanol:H2O donor solution, total THC equivalents (THC and/or prodrug)

CCCCCc1cc(OC(=O)COCCOCCOCCOC)c2c(c1)OC(C)(C)[C@@H]1CCC(C)=C[C@@H]21 [ALL00117, Δ^9-Tetrahydrocannabinol 3,6,9,12-tetraoxatridecanoyl ester]
% Prodrug at time (h) ([1]; Table 15, 0.1 h): 100% | % Prodrug at time (h) ([1]; Table 15, 1 h): 35% | % Prodrug at time (h) ([1]; Table 15, 2.5 h): 7% | % Prodrug at time (h) ([1]; Table 15, 3.5 h): 5% | 24 h skin conc ([2]; Table 2, 100% PG donor solution, analyte: THC from prodrug): 1.1 ± 0.0 µmol/g | 24 h skin conc ([2]; Table 2, 100% PG donor solution, analyte: THC or intact prodrug (PD)): 8.9 ± 7.1 µmol/g | 24 h cumulative amt ([2]; Table 4, gel formulation): 1.7 ± 0.0 nmol | Flux ([2]; Table 4, gel formulation): 0.07 ± 0.00 nmol/cm^2/h | 24 h skin conc [2, 3]: 0.7 ± 0.1 µmol/g | 24 h skin conc [2, 4]: 13.8 ± 4.1 µmol/g | 24 h cumulative amt [2, 5]: 0.7 ± 0.7 nmol | 24 h cumulative amt [2, 6]: 3.0 ± 0.3 nmol | 24 h skin conc [2, 6]: 7.3 ± 1.8 µmol/g | Flux [2, 6]: 0.4 ± 0.1 nmol/cm^2/h | Lag time [2, 6]: 15.1 ± 0.2 h | Flux enhancement [2, 7]: 0.45 | 24 h cumulative amt [2, 8]: 3.7 ± 1.0 nmol | 24 h skin conc [2, 8]: 7.3 ± 1.8 µmol/g | Flux [2, 8]: 0.5 ± 0.1 nmol/cm^2/h | Lag time [2, 8]: 15.4 ± 0.3 h

CCCCCc1cc(OC(=O)CN(C)C)c2c(c1)OC(C)(C)[C@@H]1CCC(C)=C[C@@H]21 [ALL00118, Δ^9-Tetrahydrocannabinol N,N-dimethylglycyl ester]
% Prodrug at time (h) ([1]; Table 11, 0.1 h): 100% | % Prodrug at time (h) ([1]; Table 11, 1 h): 94% | % Prodrug at time (h) ([1]; Table 11, 22 h): 86% | % Prodrug at time (h) ([1]; Table 11, 24 h): 81% | % Prodrug at time (h) ([1]; Table 11, 42 h): 15% | % Prodrug at time (h) ([1]; Table 15, 0.1 h): 100% | % Prodrug at time (h) ([1]; Table 15, 1 h): 94% | % Prodrug at time (h) ([1]; Table 15, 2 h): 86% | % Prodrug at time (h) ([1]; Table 15, 2.5 h): 81% | % Prodrug at time (h) ([1]; Table 15, 24 h): 15% | 24 h skin conc ([2]; Table 3, 1:1:1 PG:ethanol:H2O donor solution, analyte: THC from prodrug): 7.1 ± 2.4 µmol/g | 24 h skin conc ([2]; Table 3, 1:1:1 PG:ethanol:H2O donor solution, analyte: THC or intact prodrug (PD)): 37.3 ± 23.2 µmol/g | 24 h skin conc [2, 3]: 65.9 ± 24.7 µmol/g | 24 h skin conc [2, 4]: 48.8 ± 30.2 µmol/g | 24 h cumulative amt [2, 5]: 5.6 ± 0.5 nmol | 24 h skin conc [2, 5]: 3.7 ± 0.6 µmol/g | Flux [2, 5]: 0.4 ± 0.0 nmol/cm^2/h | Lag time [2, 5]: 10.2 ± 0.3 h | 24 h cumulative amt [2, 6]: 5.8 ± 0.4 nmol | 24 h skin conc [2, 6]: 9.8 ± 5.2 µmol/g | Flux [2, 6]: 0.5 ± 0.0 nmol/cm^2/h | Lag time [2, 6]: 12.8 ± 0.1 h | Flux enhancement [2, 7]: 0.90 | 24 h cumulative amt [2, 8]: 11.4 ± 0.7 nmol | 24 h skin conc [2, 8]: 13.5 ± 5.8 µmol/g | Flux [2, 8]: 0.9 ± 0.1 nmol/cm^2/h | Lag time [2, 8]: 11.6 ± 0.2 h

CCCCCc1cc(OC(=O)OCCOCCOCCOCCOC)c2c(c1)OC(C)(C)[C@@H]1CCC(C)=C[C@@H]21 [ALL00119, Δ^9-Tetrahydrocannabinol 3,6,9,12-tetraoxatridecyl carbonate]
% Prodrug at time (h) ([1]; Table 11, 0.1 h): 100% | % Prodrug at time (h) ([1]; Table 11, 1 h): 82% | % Prodrug at time (h) ([1]; Table 11, 22 h): 64% | % Prodrug at time (h) ([1]; Table 11, 24 h): 51% | % Prodrug at time (h) ([1]; Table 11, 42 h): 0% | 24 h skin conc ([2]; Table 9, 2.36:1.18:1 pH = 5.5 PG:ethanol:H2O donor solution, analyte: THC or intact prodrug as applied): 13.6 ± 7.5 µmol/g | 24 h skin conc ([2]; Table 9, 2.36:1.18:1 pH = 5.5 PG:ethanol:H2O donor solution, total THC equivalents (THC and/or prodrug)): 13.6 ± 7.5 µmol/g

CCCCCc1cc(OC(=O)CNC=O)c2c(c1)OC(C)(C)[C@@H]1CCC(C)=C[C@@H]21 [ALL00120, Δ^9-Tetrahydrocannabinol N-formylglycyl ester]
% Prodrug at time (h) ([1]; Table 11, 0.1 h): 70% | % Prodrug at time (h) ([1]; Table 11, 1 h): 8% | % Prodrug at time (h) ([1]; Table 11, 22 h): 0% | % Prodrug at time (h) ([1]; Table 11, 24 h): 0% | % Prodrug at time (h) ([1]; Table 11, 42 h): 0% | 24 h cumulative amt [2, 9]: 8.8 ± 1.2 nmol | 24 h skin conc [2, 9]: 3.1 ± 1.1 µmol/g | Flux [2, 9]: 0.6 ± 0.1 nmol/cm^2/h | Lag time [2, 9]: 9.2 ± 0.8 h | 24 h cumulative amt [2, 10]: 30.5 ± 7.0 nmol | 24 h skin conc [2, 10]: 47.1 ± 6.3 µmol/g | Flux [2, 10]: 2.0 ± 0.5 nmol/cm^2/h | Lag time [2, 10]: 8.1 ± 1.6 h | Flux enhancement ([2]; Table 7, 2.36:1.18:1 PG:ethanol:H2O donor solution): 0.87 | 24 h cumulative amt [2, 11]: 39.3 ± 6.6 nmol | 24 h skin conc [2, 11]: 50.2 ± 7.1 µmol/g | Flux [2, 11]: 2.7 ± 0.5 nmol/cm^2/h | Lag time [2, 11]: 8.4 ± 1.3 h | 24 h skin conc ([2]; Table 8, gel formulation, analyte: THC from prodrug): 3.1 ± 2.1 µmol/g | 24 h skin conc ([2]; Table 8, gel formulation, analyte: THC or intact prodrug as applied): 44.8 ± 1.6 µmol/g | 24 h skin conc ([2]; Table 8, gel formulation, total THC equivalents (THC and/or prodrug)): 47.9 ± 2.8 µmol/g
